Assay results reported in patent US4057686A, “Sulphonic acid salts of S-adenosilmethionine” (Bioresearch Limited, priority 1974, dated 1977).
Where two headings read alike, the source gives them in different places.

Legend:
[1] = in vivo, 4.2 mg/kg; for Distribution of SAM in rat tissues: Hypophysis / Distribution of SAM in rat tissues: Hypothalamus / Distribution of SAM in rat tissues: Liver / Distribution of SAM in rat tissues: Plasma / Distribution of SAM in rat tissues: Rind / Distribution of SAM in rat tissues: Spleen / Distribution of SAM in rat tissues: Suprarenal glands: iv
Description: In order to indicatively determine how SAM is distributed in the tissues, S-Adenosilmethionine (Methyl C^14) was prepared. The distribution of this product in rats was studied by administering a dose of 4.2 mg/kg/e.v. equal to approxymately 10 μci of radioactive product. The specific activity of the product was 58 mCi/m moles.

[2] = tested on: hepatic cholesterol degeneration; assay: Hepatic cholesterol degeneration in the rat (Ridout); type: in vivo; conditions: for Fresh liver weight: three weeks
Source text: The values are the averages ± E.S. of 10 values for each group. In studying the hepatoprotective activity we have used an experimental device which produces in the rat the so-called hepatic cholesterol degeneration (Ridout and Coll., Biochem. J. 52, 99, 1952).
In this method, by means of a suitable diet, a conspicuous increase in the total hepatic fats and hepatic cholesterol are obtained in the animals. The substances which act in the lipidic metabolism reduce or annul this increase.
The animals were divided into six groups. The first group was administered with a diet which was varied at will. The second group was administered with the basic diet of Ridout (20 g per rat per day); the other groups were administered with the same diet in the same doses but enriched with cholesterol to the extent of 0.2 g/rat/day. The treatment lasted three weeks. The groups 4,5,6 were administered with SAM in the following doses:
0.4, 0.8, 2 mg/kg/i.p. per day.
At the end of the three weeks all the animals were killed, the livers were withdrawn and the total fats (Best and Coll., Biochem. J. 40, 368, 1966) and cholesterol (Sperry and Brand, J. Biol. Chem. 150, 315, 1943) were determined.

edema by egg white = assay: Edema by egg white (acute inflammation); type: in vivo; conditions: orally 8 to 40 mg/kg; parenterally 4 to 8 mg/kg; in comparison with Ibuprofen, Indometacina
Source text: (§1) Of the various tests we shall mention the most classic, namely the edema by carragenine and by egg white as a test for acute inflammation; and granuloma by cotton pellets and arthritis by adjuvant as a test for chronic inflammation. […] The analgesia tests were in the form of the hot plate test and stretching by acetic acid, and the Randal and Selitto test in the rat.

[3] = tested on: granuloma by cotton pellets; assay: Granuloma by cotton pellets (chronic inflammation); type: in vivo; conditions: orally 8 to 40 mg/kg; parenterally 4 to 8 mg/kg; in comparison with Ibuprofen, Indometacina
Source text: as §1

Randal and Selitto test = assay: Randal and Selitto analgesia test in the rat; type: in vivo; conditions: in comparison with known drugs studied
Source text: as §1

[4] = tested on: Parkinsons disease and Parkinsonisms; assay: Clinical tests: Parkinsons disease and Parkinsonisms, with Levodopa; type: in vivo, human

Compound: C[S+](CC[C@H](N)C(=O)O)C[C@H]1O[C@@H](n2cnc3c(N)ncnc32)[C@H](O)[C@@H]1O (stereo partly drawn) [SAM, S-Adenosil-L-Methionine]
- Distribution of SAM in rat tissues: Hypophysis ([1]; 0.25 h): 2.3 μgr/gr
- Distribution of SAM in rat tissues: Hypothalamus ([1]; 0.25 h): 0.3 μgr/gr
- Distribution of SAM in rat tissues: Liver ([1]; 0.25 h): 1.7 μgr/gr
- Distribution of SAM in rat tissues: Plasma ([1]; 0.25 h): 7.5 μgr/gr
- Distribution of SAM in rat tissues: Rind ([1]; 0.25 h): 0.25 μgr/gr
- Distribution of SAM in rat tissues: Spleen ([1]; 0.25 h): 1.3 μgr/gr
- Distribution of SAM in rat tissues: Suprarenal glands ([1]; 0.25 h): 1.9 μgr/gr
- Distribution of SAM in rat tissues: Hypophysis ([1]; 1 h): 2.5 μgr/gr
- Distribution of SAM in rat tissues: Hypothalamus ([1]; 1 h): 0.65 μgr/gr
- Distribution of SAM in rat tissues: Liver ([1]; 1 h): 3.0 μgr/gr
- Distribution of SAM in rat tissues: Plasma ([1]; 1 h): 2.1 μgr/gr
- Distribution of SAM in rat tissues: Rind ([1]; 1 h): 0.45 μgr/gr
- Distribution of SAM in rat tissues: Spleen ([1]; 1 h): 1.2 μgr/gr
- Distribution of SAM in rat tissues: Suprarenal glands ([1]; 1 h): 3.4 μgr/gr
- Distribution of SAM in rat tissues: Hypophysis ([1]; 4 h): 8.0 μgr/gr
- Distribution of SAM in rat tissues: Hypothalamus ([1]; 4 h): 1.0 μgr/gr
- Distribution of SAM in rat tissues: Liver ([1]; 4 h): 5.5 μgr/gr
- Distribution of SAM in rat tissues: Plasma ([1]; 4 h): 2.3 μgr/gr
- Distribution of SAM in rat tissues: Rind ([1]; 4 h): 0.75 μgr/gr
- Distribution of SAM in rat tissues: Spleen ([1]; 4 h): 3.5 μgr/gr
- Distribution of SAM in rat tissues: Suprarenal glands ([1]; 4 h): 4.8 μgr/gr
- Distribution of SAM in rat tissues: Hypophysis ([1]; 8 h): 4.5 μgr/gr
- Distribution of SAM in rat tissues: Hypothalamus ([1]; 8 h): 1.3 μgr/gr
- Distribution of SAM in rat tissues: Liver ([1]; 8 h): 5.6 μgr/gr
- Distribution of SAM in rat tissues: Plasma ([1]; 8 h): 2.0 μgr/gr
- Distribution of SAM in rat tissues: Rind ([1]; 8 h): 8.5 μgr/gr
- Distribution of SAM in rat tissues: Spleen ([1]; 8 h): 2.6 μgr/gr
- Distribution of SAM in rat tissues: Suprarenal glands ([1]; 8 h): 4.5 μgr/gr
- Distribution of SAM in rat tissues: Hypophysis ([1]; 24 h): 4.2 μgr/gr
- Distribution of SAM in rat tissues: Hypothalamus ([1]; 24 h): 1.3 μgr/gr
- Distribution of SAM in rat tissues: Liver ([1]; 24 h): 5.7 μgr/gr
- Distribution of SAM in rat tissues: Plasma ([1]; 24 h): 1.1 μgr/gr
- Distribution of SAM in rat tissues: Rind ([1]; 24 h): 9.4 μgr/gr
- Distribution of SAM in rat tissues: Spleen ([1]; 24 h): 2.8 μgr/gr
- Distribution of SAM in rat tissues: Suprarenal glands ([1]; 24 h): 4.4 μgr/gr
- distribution to tissues ([1]; rat): distributed very rapidly to all the tissues
- protection of the batch ([2]; 2 mg/kg/i.p.): completely protected
- protection of the batch ([2]; 0.4-0.8 mg/kg/i.p.): poorly protected
- Fresh liver weight ([2]; batch IV, 0.4 mg/kg/i.p. per day): 17 g
- Fresh liver weight ([2]; batch V, 0.8 mg/kg/i.p. per day): 16 g
- anti-inflammatory activity (edema by egg white): active
- anti-inflammatory activity [3]: active
- analgesic activity (Randal and Selitto test): active
- akinesia and rigidity ([4]; 4-16 mg per day with Levodopa, vs patients treated only with Levodopa): a statistically more significant improvement
- extent of the Parkinson tremor ([4]; SAM in association with Levodopa): Favourable modifications
- Levodopa dependent psychic disturbances ([4]; depressive states and psychic manifestations of irritative type): distinctly improves
- Levodopa side effects ([4]; nausea, vomit, inappetite, hypotension, asthenia, cephalea, hypersudoration, insomnia, 4-16 mg per day): significantly blocks
